Laboratory results as given in US8653100B2 (AbbVie Inc., priority 2008, dated 2014).
Where a name gives a salt, the structure may show the parent alone.

Target: human GlyT1c transporter (Homo sapiens (Human), UniProt P48067)
Experiment: Radioligand binding assay using recombinant CHO cell membranes expressing human GlyT1
Details: examples 88-204, radioligand not specified by footnote, read-out: radioligand binding Kiapp
Protocol: 2. Radioligand binding assays using recombinant CHO cell membranes expressing human GlyT1:
Radioligand binding to human GlyT1c transporter-expressing membranes was carried out as described in Mezler et al., Molecular Pharmacology 74:1705-1715, 2008.
More specifically, [^3H]-(R)-NPTS radioligand binding to human GlyT1c transporter-expressing membranes was measured in duplicate in a total volume of 200 μl in 96-well plates. To 100 μl of membrane suspension (yielding a final membrane protein concentration of 50 μg/ml) in assay buffer (120 mM NaCl, 2 mM KCl, 10 mM Hepes, 1 mM MgCl2, 1 mM CaCl2, pH 7.5) […] of [^3H]-(R)-NPTS (0.5 nM final) were added in assay buffer. For competition experiments 10 μl of buffer or unlabeled compound solution obtained from dilution series of test compounds in DMSO followed. An intermediate 1:10 dilution in assay buffer yielded a final DMSO concentration of 1%. Non-specific binding was determined in the presence of 10 μM Org24598 (or its racemate Org24461) for [^3H]-(R)-NPTS. After incubation at room temperature for 1 h, the incubation mixture was harvested (Tomtec Mach III U Harvester) through 96-well GF/B filter plates (PerkinElmer), presoaked for 1 h with 40 μl per well of 0.1% polyethylene-imine (PEI). After washing twice with ice-cold 50 mM Tris-HCl pH 7.4 buffer, drying and addition of 35 μl scintillator (BetaplateScint, PerkinElmer) per well followed. The radioactivity was determined by liquid scintillation spectrometry in a MicroBeta (PerkinElmer) plate counter.
Data analysis: For binding of [^3H]-(R)-NPTS to cell membranes, the calculation of Kd and Bmax values from the saturation binding assays and the IC50 values from the displacement binding was performed by iterative non-linear regression analysis adapted from the ‘Ligand’ program (Munson and Rodbard, 1980). Radioligand displacement curves in absence or in presence of increasing concentrations of tested compounds were fitted using a one-site fit and the apparent Ki values were calculated from the IC50 values using the Cheng-Prusoff equation (Cheng and Prusoff 1973).

Chain of human GlyT1c transporter (P48067 whole entry): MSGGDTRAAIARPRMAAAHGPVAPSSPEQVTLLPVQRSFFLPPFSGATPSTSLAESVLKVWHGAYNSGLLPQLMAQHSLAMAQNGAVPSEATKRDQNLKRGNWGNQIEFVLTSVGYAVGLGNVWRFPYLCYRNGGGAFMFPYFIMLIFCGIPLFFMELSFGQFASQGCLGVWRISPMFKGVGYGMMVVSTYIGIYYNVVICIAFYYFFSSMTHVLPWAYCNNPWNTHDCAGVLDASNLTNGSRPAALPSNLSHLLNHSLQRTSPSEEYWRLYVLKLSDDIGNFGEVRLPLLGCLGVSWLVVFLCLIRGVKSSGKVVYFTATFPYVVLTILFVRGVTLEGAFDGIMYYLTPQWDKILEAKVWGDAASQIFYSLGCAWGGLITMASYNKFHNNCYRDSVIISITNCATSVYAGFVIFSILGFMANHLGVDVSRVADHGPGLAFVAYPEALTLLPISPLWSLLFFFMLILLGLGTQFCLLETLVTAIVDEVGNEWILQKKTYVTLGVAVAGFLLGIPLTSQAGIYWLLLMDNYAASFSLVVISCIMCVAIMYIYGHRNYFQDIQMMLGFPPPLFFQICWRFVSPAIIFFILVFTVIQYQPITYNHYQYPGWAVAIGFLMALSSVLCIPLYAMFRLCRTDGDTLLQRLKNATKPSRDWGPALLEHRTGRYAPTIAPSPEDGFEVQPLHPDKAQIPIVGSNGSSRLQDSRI

Row | Structure (SMILES) | Ki [nM]
1 | Cn1cc(S(=O)(=O)NCCOc2ccc3c(c2)C(C2(c4ccc(Cl)cc4)CC(F)(F)C2)NCC3)cn1 (single isomer, unassigned) [Example 138, N-[2-({1-[1-(4-Chlorophenyl)-3,3-difluorocyclobutyl]-1,2,3,4-tetrahydroisoquinolin-7-yl}oxy)ethyl]-1-methyl-1H-pyrazole-4-sulfonamide] | ≤ 100
2 | O=S(=O)(NCCOc1ccc2c(c1)C(C1(c3ccc(Cl)cc3)CCC1)NCC2)C1CCNC1 (single isomer, unassigned) [Example 148, N-[2-({1-[1(4-Chlorophenyl)cyclobutyl]-1,2,3,4-tetrahydroisoquinolin-7-yl}oxy)ethyl]pyrrolidine-3-sulfonamide dihydrochloride] | ≤ 100
3 | O=S(=O)(NCCOc1ccc2c(c1)C(C1(c3ccc(Cl)cc3)CCC1)NCC2)C1CCNC1 (single isomer, unassigned) [Example 151, N-[2-({1-[1-(4-Chlorophenyl)cyclobutyl]-1,2,3,4-tetrahydroisoquinolin-7-yl}oxy)ethyl]pyrrolidine-3-sulfonamide dihydrochloride] | ≤ 100
4 | NCCS(=O)(=O)NCCOc1ccc2c(c1)C(C1(c3ccc(Cl)cc3)CCC1)NCC2 (single isomer, unassigned) [Example 158, 2-Amino-N-[2-({1-[1-(4-chlorophenyl)cyclobutyl]-1,2,3,4-tetrahydroisoquinolin-7-yl}oxy)ethyl]ethanesulfonamide dihydrochloride] | ≤ 100
5 | O=S(=O)(NCCOc1ccc2c(c1)C(C1(c3ccc(Cl)cc3)CCC1)NCC2)C1CCCNC1 (single isomer, unassigned) [Example 160, N-[2-({1-[1-(4-Chlorophenyl)cyclobutyl]-1,2,3,4-tetrahydroisoquinolin-7-yl}oxy)ethyl]piperidine-3-sulfonamide dihydrochloride] | ≤ 100
6 | O=S(=O)(NCCOc1ccc2c(c1)C(C1(c3ccc(Cl)cc3)CCC1)NCC2)C1CCCNC1 (single isomer, unassigned) [Example 164, N-[2-({1-[1-(4-Chlorophenyl)cyclobutyl]-1,2,3,4-tetrahydroisoquinolin-7-yl}oxy)ethyl]piperidine-3-sulfonamide dihydrochloride] | ≤ 1000
7 | Cn1cc(S(=O)(=O)NCCOc2ccc3c(c2)C(C2(c4ccc(Cl)cc4)CC(F)(F)C2)NCC3)cn1 (single isomer, unassigned) [Example 168, N-[2-({1-[1-(4-Chlorophenyl)-3,3-difluorocyclobutyl]-1,2,3,4-tetrahydroisoquinolin-7-yl}oxy)ethyl]-1-methyl-1H-pyrazole-4-sulfonamide] | ≤ 1000
8 | O=S(=O)(NCCOc1ccc2c(c1)C(C1(c3ccc(Cl)cc3)CCC1)NCC2)C1CCNC1 (single isomer, unassigned) [Example 172, N-[2-({1-[1-(4-Chlorophenyl)cyclobutyl]-1,2,3,4-tetrahydroisoquinolin-7-yl}oxy)ethyl]pyrrolidine-3-sulfonamide dihydrochloride] | ≤ 10000
9 | O=S(=O)(NCCOc1ccc2c(c1)C(C1(c3ccc(Cl)cc3)CCC1)NCC2)C1CCNC1 (single isomer, unassigned) [Example 175, N-[2-({1-[1-(4-Chlorophenyl)cyclobutyl]-1,2,3,4-tetrahydroisoquinolin-7-yl}oxy)ethyl]pyrrolidine-3-sulfonamide dihydrochloride] | ≤ 10000
10 | O=S(=O)(NCCOc1ccc2c(c1)C(C1(c3ccc(Cl)cc3)CCC1)NCC2)C1CCCNC1 (single isomer, unassigned) [Example 192, N-[2-({1-[1-(4-Chlorophenyl)cyclobutyl]-1,2,3,4-tetrahydroisoquinolin-7-yl}oxy)ethyl]piperidine-3-sulfonamide dihydrochloride] | ≤ 10000
11 | O=S(=O)(NCCOc1ccc2c(c1)C(C1(c3ccc(Cl)cc3)CCC1)NCC2)C1CCCNC1 (single isomer, unassigned) [Example 193, N-[2-({1-[1-(4-Chlorophenyl)cyclobutyl]-1,2,3,4-tetrahydroisoquinolin-7-yl}oxy)ethyl]piperidine-3-sulfonamide dihydrochloride] | ≤ 10000
12 | C/C=C/S(=O)(=O)NCCOc1ccc2c(c1)C(C1(c3ccc(Cl)cc3)CCC1)NCC2 (centres unmarked) [Example 88, (1E)-N-[2-({1-[1-(4-Chlorophenyl)cyclobutyl]-1,2,3,4-tetrahydroisoquinolin-7-yl}oxy)ethyl]prop-1-ene-1-sulfonamide hydrochloride] | ≤ 100
13 | CCCS(=O)(=O)NCCNc1ccc2c(c1)C(C1(c3ccc(Cl)cc3)CCC1)NCC2 (centres unmarked) [Example 89, N-[2-({1-[1-(4-Chlorophenyl)cyclobutyl]-1,2,3,4-tetrahydroisoquinolin-7-yl}amino)ethyl]propane-1-sulfonamide dihydrochloride] | ≤ 100
14 | CCCS(=O)(=O)NCc1ccc2c(c1)C(C1(c3ccc(Cl)cc3)CCC1)NCC2 (centres unmarked) [Example 90, N-({1-[1-(4-Chlorophenyl)cyclobutyl]-1,2,3,4-tetrahydroisoquinolin-7-yl}methyl)propane-1-sulfonamide hydrochloride] | ≤ 100
15 | Cn1cc(S(=O)(=O)NCc2ccc3c(c2)C(C2(c4ccc(Cl)cc4)CCC2)NCC3)cn1 (centres unmarked) [Example 91, N-({1-[1-(4-Chlorophenyl)cyclobutyl]-1,2,3,4-tetrahydroisoquinolin-7-yl}methyl)-1-methyl-1H-pyrazole-4-sulfonamide trifluoroacetate] | ≤ 100
16 | N#Cc1ccc2c(c1)C(C1(c3ccc(Cl)cc3)CCC1)NCC2 (centres unmarked) [Example 92, 1-[1-(4-Chlorophenyl)cyclobutyl]-1,2,3,4-tetrahydroisoquinoline-7-carbonitrile hydrochloride] | ≤ 100
17 | Cn1cnc(S(=O)(=O)NCc2ccc3c(c2)C(C2(c4ccc(Cl)cc4)CCC2)NCC3)c1 (centres unmarked) [Example 93, N-({1-[1-(4-Chlorophenyl)cyclobutyl]-1,2,3,4-tetrahydroisoquinolin-7-yl}methyl)-1-methyl-1 H-imidazole-4-sulfonamide hydrochloride] | ≤ 100
18 | O=S(=O)(CCCF)NCc1ccc2c(c1)C(C1(c3ccc(Cl)cc3)CCC1)NCC2 (centres unmarked) [Example 94, N-({1-[1-(4-Chlorophenyl)cyclobutyl]-1,2,3,4-tetrahydroisoquinolin-7-yl}methyl)-3-fluoropropane-1-sulfonamide hydrochloride] | ≤ 100
19 | CCCS(=O)(=O)NCc1ccc2c(c1)C(C(C)(C)c1ccc(Cl)cc1)NCC2 (centres unmarked) [Example 96, N-({1-[2-(4-Chlorophenyl)propan-2-yl]-1,2,3,4-tetrahydroisoquinolin-7-yl}methyl)propane-1-sulfonamide hydrochloride] | ≤ 100
20 | O=S(=O)(CCO)NCCOc1ccc2c(c1)C(C1(c3ccc(Cl)cc3)CCC1)NCC2 (centres unmarked) [Example 97, N-[2-({1-[1-(4-Chlorophenyl)cyclobutyl]-1,2,3,4-tetrahydroisoquinolin-7-yl}oxy)ethyl]-2-hydroxyethanesulfonamide hydrochloride] | ≤ 100
21 | CCCS(=O)(=O)NCCOc1ccc2c(c1)C(C1(c3ccccn3)CCC1)NCC2 (centres unmarked) [Example 98, N-[2-({1-[1-(Pyridin-2-yl)cyclobutyl]-1,2,3,4-tetrahydroisoquinolin-7-yl}oxy)ethyl]propane-1-sulfonamide dihydrochloride] | ≤ 100
22 | CCCS(=O)(=O)NCC(=O)Nc1ccc2c(c1)C(C1(c3ccc(Cl)cc3)CCC1)NCC2 (centres unmarked) [Example 99, N-{1-[1-(4-Chlorophenyl)cyclobutyl]-1,2,3,4-tetrahydroisoquinolin-7-yl}-N˜2˜-(propylsulfonyl)glycinamide hydrochloride] | ≤ 100
23 | Cn1cc(S(=O)(=O)NCc2ccc3c(c2)C(C(C)(C)c2ccc(Cl)cc2)NCC3)cn1 (centres unmarked) [Example 100, N-({1-[2-(4-Chlorophenyl)propan-2-yl]-1,2,3,4-tetrahydroisoquinolin-7-yl}methyl)-1-methyl-1H-pyrazole-4-sulfonamide hydrochloride] | ≤ 100
24 | Cn1cnc(S(=O)(=O)NCc2ccc3c(c2)C(C(C)(C)c2ccc(Cl)cc2)NCC3)c1 (centres unmarked) [Example 102, N-({1-[2-(4-Chlorophenyl)propan-2-yl]-1,2,3,4-tetrahydroisoquinolin-7-yl}methyl)-1-methyl-1H-imidazole-4-sulfonamide hydrochloride] | ≤ 100
25 | O=S(=O)(CCCF)NCCOc1ccc2c(c1)C(C1(c3ccccn3)CCC1)NCC2 (centres unmarked) [Example 104, 3-Fluoro-N-[2-({1-[1-(pyridin-2-yl)cyclobutyl]-1,2,3,4-tetrahydroisoquinolin-7-yl}oxy)ethyl]propane-1-sulfonamide hydrochloride] | ≤ 100
26 | CCCS(=O)(=O)NCCOc1ccc2c(c1)C(C1(c3cccc(Cl)n3)CCC1)NCC2 (centres unmarked) [Example 105, N-[2-({1-[1-(6-Chloropyridin-2-yl)cyclobutyl]-1,2,3,4-tetrahydroisoquinolin-7-yl}oxy)ethyl]propane-1-sulfonamide dihydrochloride] | ≤ 100
